Data on 13 compounds can be found in PubChem BioAssay (NCI).

Some test systems named below: PC-3 prostate; SF-295 CNS; COLO 205 colon; MCF7 breast; MOLT-4 leukemia; RXF 393 renal; HOP-92 NSCLC; KM12 colon; LOX IMVI melanoma; NCI-H522 lung.
Holding throughout (test): NCI tumour cell line growth inhibition, 48 h

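All cell lines were grown in 96-well plates and treated with compound for 48 hours. GI50 marks 50% less growth. TGI: total growth inhibition.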 Where a SMILES comes first, the peptide text is derived from it. Bridges are numbered along the chain shown (N, C = ends). [ ]: non-standard residue; d: D form. The star is where a group is joined. ξ: configuration not given here. X26 = O=C(/C=C/C=C/C=C/C=C/C=C/C(=O)*)NC1=C(O)CCC1=O; NMeA = CN[C@@H](C)C(=O)O; ξF = NC(Cc1ccccc1)C(=O)O; ξA = CC(N)C(=O)O Bounds are passed on as bounds.

For the compound `COC(C)(C)[C@@H](O)[C@H]1C[C@H](C)[C@@]2(CC[C@]3(C)[C@@H]2CC[C@@H]2[C@@]4(C)CC[C@@H](OC(C)=O)C(C)(C)[C@@H]4C[C@@H](OC4OC(COC(C)=O)C(O)C(O)C4O)[C@]23C)O1` (stereo partly drawn), the TGI in the assay on PC-3 prostate came to 8.1 µM; with SF-295 CNS, 16.5 µM; with COLO 205 colon, 6.18 µM; with MCF7 breast, 8.92 µM; in the assay with MOLT-4 leukemia it was 10.7 µM; in the assay on RXF 393 renal, 11.8 µM. Besides, the TGI with HOP-92 NSCLC came out at 17.6 µM; in the assay on KM12 colon, 3.62 µM; in the assay on LOX IMVI melanoma it was 14.9 µM; in the assay on NCI-H522 lung it was 17.4 µM.

With `C/C1=C\CC[C@@]2(C)O[C@@H]2C[C@@H](C2(C)CO2)CC/C(C)=C/CC1` (stereo partly drawn), the TGI with PC-3 prostate was 82.2 µM; in the assay on SF-295 CNS it was 51 µM; in the assay on COLO 205 colon, 33.2 µM; in the assay on MCF7 breast, 37.1 µM; in the assay on MOLT-4 leukemia it was greater than 100 µM; in the assay with HOP-92 NSCLC, greater than 100 µM. For the same compound, the TGI with KM12 colon was 34.3 µM; in the assay on LOX IMVI melanoma, 28.8 µM; in the assay on NCI-H522 lung, 52.6 µM.

Turning to `COc1cc2cc(Oc3ccc(NC(=O)c4cc(C(F)(F)F)cc(C(F)(F)F)c4)cc3)c(C)nc2cc1OC`, the GI50 in the assay with PC-3 prostate is 1.66 µM; in the assay on SF-295 CNS, 1.64 µM; with COLO 205 colon, 3.05 µM; with MCF7 breast, 1.91 µM; with MOLT-4 leukemia, 3.71 µM; with RXF 393 renal it was 2.93 µM. In addition, the GI50 is 1.82 µM in the assay with HOP-92 NSCLC, 2.79 µM in the assay with KM12 colon, 47 µM with LOX IMVI melanoma and 2.01 µM in the assay with NCI-H522 lung. For the same compound, the TGI in the assay on PC-3 prostate, with SF-295 CNS, in the assay with COLO 205 colon, in the assay with MCF7 breast, with MOLT-4 leukemia and in the assay with RXF 393 renal was greater than 50 µM each time. The TGI with HOP-92 NSCLC, in the assay with KM12 colon, in the assay on LOX IMVI melanoma and in the assay with NCI-H522 lung was greater than 50 µM in each case.

With `CN(Cc1ccccc1)c1cc(=O)n(C)c(=O)[nH]1`, the TGI in the assay with PC-3 prostate, with SF-295 CNS, with COLO 205 colon, in the assay on MCF7 breast, in the assay on MOLT-4 leukemia and with HOP-92 NSCLC was greater than 100 µM in each case. Moreover, the TGI in the assay on LOX IMVI melanoma and in the assay on NCI-H522 lung was greater than 100 µM in each case.

In the case of `Oc1[nH]c2ccc(Br)cc2c1N=NC(=S)Nc1ccc(F)cc1`, the TGI turned out to be 39.1 µM in the assay with PC-3 prostate; 21.8 µM in the assay on SF-295 CNS; 22.4 µM in the assay on COLO 205 colon; 24.7 µM with MCF7 breast; 29.6 µM in the assay on MOLT-4 leukemia; 13.2 µM in the assay on RXF 393 renal. Further, the TGI stood at 16.3 µM in the assay with HOP-92 NSCLC, 30.5 µM with KM12 colon, 27.1 µM with LOX IMVI melanoma and 38 µM in the assay with NCI-H522 lung.

With `C[C@]12CC[C@@H]3c4ccc(O)cc4CC[C@H]3[C@@H]1C/C(=C\c1ccncc1)[C@@H]2O`, the TGI in the assay on PC-3 prostate turned out to be 76.2 µM; in the assay with SF-295 CNS, 70.2 µM; with COLO 205 colon, 19.8 µM; with MCF7 breast it was 30.2 µM; with MOLT-4 leukemia it was 40.8 µM; in the assay with RXF 393 renal, 7.73 µM. The figures for the TGI in the assay with HOP-92 NSCLC, in the assay with KM12 colon and in the assay with NCI-H522 lung were 32 µM, 62.2 µM and 20.1 µM, respectively.

Take `CC1NC(=O)[C@H](C)N(C)C(=O)[C@@H]2CCCN2C(=O)[C@@H](NC(=O)C(Cc2ccccc2)NC(=O)/C=C/C=C/C=C/C=C/C=C/C(=O)NC2=C(O)CCC2=O)COC(=O)[C@@H]2CCCN2C1=O` (stereo partly drawn) (X26-[ξF]SP[NMeA][ξA]P; ester 2-C): the TGI in the assay on PC-3 prostate, in the assay with SF-295 CNS, in the assay on COLO 205 colon, in the assay with MCF7 breast, with RXF 393 renal and in the assay on HOP-92 NSCLC was greater than 100 µM each time. In addition, the TGI in the assay with KM12 colon, with LOX IMVI melanoma and in the assay on NCI-H522 lung was greater than 100 µM in each case.

On to `O=C(NCCCN(CCCCN(CCCNC(=O)C(F)(F)F)Cc1ccc2ccccc2c1)Cc1ccc2ccccc2c1)C(F)(F)F`, for which the TGI in the assay on PC-3 prostate is greater than 100 µM; in the assay with SF-295 CNS, greater than 100 µM; in the assay on MCF7 breast it was 4.54 µM; with MOLT-4 leukemia, greater than 100 µM; in the assay with RXF 393 renal it was greater than 100 µM; with HOP-92 NSCLC, greater than 100 µM. In addition, the TGI in the assay with KM12 colon, with LOX IMVI melanoma and in the assay on NCI-H522 lung was greater than 100 µM each time.

As for `COc1ccc(/C=C2\C[C@H]3[C@@H]4CCC5=C/C(=N/O)CC[C@]5(C)[C@H]4CC[C@]3(C)\C2=N\O)cc1OC`, the TGI in the assay with PC-3 prostate was greater than 100 µM; in the assay with SF-295 CNS, 88.4 µM; in the assay on MCF7 breast, greater than 100 µM; in the assay on MOLT-4 leukemia, 94.3 µM; in the assay with RXF 393 renal, greater than 100 µM; with HOP-92 NSCLC, greater than 100 µM. Also, the TGI in the assay with KM12 colon, with LOX IMVI melanoma and with NCI-H522 lung was greater than 100 µM throughout.

On to `C=C1c2cc3c(cc2CC12Cc1cc4c(cc1C2=O)CCC4)CCC3` (stereo not drawn), for which the TGI in the assay on PC-3 prostate, in the assay with SF-295 CNS, with MCF7 breast, in the assay with MOLT-4 leukemia, in the assay on RXF 393 renal and in the assay with HOP-92 NSCLC was greater than 100 µM each time. Moreover, the TGI in the assay on LOX IMVI melanoma and in the assay with NCI-H522 lung was greater than 100 µM each time.

Turning to `O=C(CNc1c(Cl)cccc1Cl)NC1C=Cc2ccc(S(=O)(=O)Nc3c(Cl)cccc3Cl)cc2C1=O` (stereo not drawn), the TGI in the assay with PC-3 prostate, with SF-295 CNS, in the assay on COLO 205 colon, in the assay on MCF7 breast, with MOLT-4 leukemia and in the assay with HOP-92 NSCLC was greater than 100 µM throughout. Moreover, the TGI with KM12 colon, in the assay on LOX IMVI melanoma and in the assay with NCI-H522 lung was greater than 100 µM throughout.

Regarding `CCOC(=O)C(Cl)(Cl)/S(=N\S(=O)(=O)c1ccccc1)NC(=O)c1ccccc1` (stereo not drawn), the TGI in the assay on PC-3 prostate, in the assay on SF-295 CNS, in the assay on COLO 205 colon, with MCF7 breast, in the assay on MOLT-4 leukemia and in the assay with RXF 393 renal was greater than 100 µM throughout. Also, the TGI with HOP-92 NSCLC, with KM12 colon and with LOX IMVI melanoma was greater than 100 µM each time.

As for `O=c1[nH]cnc2c1ncn2[C@@H]1C[C@@H]1CO`, the TGI in the assay on PC-3 prostate, in the assay with COLO 205 colon, in the assay with MCF7 breast, in the assay on MOLT-4 leukemia, with RXF 393 renal and in the assay on HOP-92 NSCLC was greater than 100 µM in each case. In addition, the TGI in the assay with KM12 colon, with LOX IMVI melanoma and with NCI-H522 lung was greater than 100 µM in each case.
